Data from patent publication US9585871B2, “Method for treating and curing leishmaniosis using fexinidazole” (Merial Limited, priority 2013, dated 2017).

Columns and labels:
[1] = Multiple dosing study in dogs: systemic exposure (plasma) to fexinidazole and its metabolites; format: in vivo, dog; details: dog, in vivo, po, 800 mg/kg/day
Experimental: In an embodiment, the fexinidazole may be administered to the canine as an aqueous oral suspension, comprising 5% TWEEN 80 and 0.5% Methyl cellulose 400 cP (METHOCEL). Provided in this format, fexinidazole suspensions of 5, 20, and 80 mg fexinidazole/mL may be prepared such that 10 mL of each concentration contains 50, 200, and 800 mg fexinidazole, respectively.
Moreover, inventors expect that a wide variety of dosing regimens are now available to the skilled person to achieve the necessary and sufficient fexinidazole plasma levels. For example, and as further outlined in the Examples below, any dosing regimen that produces substantially similar fexinidazole plasma levels, as compared to those levels produced by giving the dogs about 60 mg/kg/day for about twenty-eight days, is expected to substantially or completely eliminate the Leishmania parasites. Table 1 presents the systemic fexinidazole exposure following dosing of dogs with 50, 200, and 800 mg/kg/day.

[2] = tested on: Leishmania donovani amastigotes grown in macrophages; details: Wyllie S et al., 2012; cited from earlier work

| SMILES | AUC0-24 [1] | activity against Leishmania donovani amastigotes grown in macrophages [2] |
| --- | --- | --- |
| Cn1c([N+](=O)[O-])cnc1COc1ccc([S+](C)[O-])cc1 (stereo not drawn) [sulfoxide metabolite] | 74.3 ± 14.4^(1) μg · hour/mL | active |
| Cn1c([N+](=O)[O-])cnc1COc1ccc(S(C)(=O)=O)cc1 [sulfone metabolite] | – | active |
